Assay results published in patent US4333938A, “Imino derivatives of 5-aminobenzodioxole-1,3 which are useful as medicaments” (Laboratoires Sarget, priority 1979, dated 1982).
Several values for one entry are separate records, joined by “and”; a condition that tells them apart may be missing. Equal values may be shown once.

How the values were obtained:
phenylbenzoquinone (PBQ) = test: analgesic activity, phenylbenzoquinone (PBQ) challenge; format: in vivo; details: male Swiss mouse, oral
Experimental: The analgesic activity was determined in the male Swiss mouse using phenylbenzoquinone (PBQ) as the challenging agent (variation of the method of Siegmund et al, Proc. Soc. Exp. Biol. Med. […], 95, 729-31). […] The ED50 was determined by the method of Lichfield and Wilcoxon.

[1] = oral toxicity (mortality) in the mouse; details: in vivo, Swiss mice
Experimental: (§1) The percentages of mortality produced by the compounds of this invention when administered orally to Swiss mice are shown in Table 1. The animals, free from specific pathogenic organisms were housed in an air conditioned room for 24 to 48 hours before the start of the experiment. They were separated into groups of 5 males and 5 females. The materials were administered to animals which had been fasted for 24 hours by means of a gastric tube in suspension in a 6% thickened julep using a volume equivalent to 0.1 ml per 10 g of body weight. […] They remained under observation for two weeks before being sacrificed and autopsied.

Wistar rat = test: oral toxicity (mortality) in the Wistar rat; format: in vivo; details: 3000 mg/kg
Experimental: as §1
The toxicities of the compounds of Examples 2 and 3 were determined in the Wistar rat. The protocol which was followed was the same as that described for the mice, except that the compounds were administered in a volume equivalent to 0.5 ml per 100 g of body weight of rat. […] The product of Example 3 produced no mortality at 2000 mg/kg and 20% mortality at 3000 mg/kg.

[2] = system: carrageenan-induced granulomas; test: activity on carrageenan-induced granulomas; format: in vivo, Male Wistar rats
Experimental: Male Wistar rats weighing 130 to 150 grams were given a subcutaneous injection in the central part of the skin of the back of 0.5 ml of an aqueous suspension of carrageenan. Two doses of the test substance are administered, one 30 minutes before and the other 6 hours after carrageenan. At the end of 24 hours the rats were sacrificed and the granulomas were removed and weighed before and after drying for 24 hours at 50° C. The difference in weight of the granulomas wet and dry represents the exudate
These AD50 are respectively 175(142-215) and 175(150-205) mg/kg.

[3] = system: edema produced by serotonin; test: inhibition of serotonin-induced edema; format: in vivo, Wistar rat; details: oral, 30 minutes before serotonin
Experimental: In the Wistar rat inflammation is induced by intrapedal injection of 0.1 ml of a 0.02% solution of serotonin in physiological serum. The test substance is administered orally 30 minutes before the serotonin and the edema is measured by plethysmometry one hour after its release.

cotton pellet granulomas = test: inhibition of cotton pellet granulomas; format: in vivo, male Sprague-Dawley rats; details: oral, daily for 10 days
Experimental: Two cotton pellets weighing 70 mg were implanted under the back skin of male Sprague-Dawley rats anesthetized with ether. Starting the next day, the compound was administered orally daily for 10 days. The rats were sacrificed and the pellets were removed and weighed before and after drying at 50° C. for 24 hours. The weights used were those obtained after deduction of the weight of the implants. The average of the quantities so calculated was determined for each group and compared to the averages of the control group.

solubility in water = format: physicochemical
stomachs = test: ulcerogenic activity; format: in vivo, female Wistar rat; details: 150 mg/kg daily
Experimental: The ulcerogenic activity was determined in the female Wistar rat using a variation of the procedure described by J. M. Lwoff, J. Pharmacol. 1971, 3, 1, 81-3. The test substance was administered daily for 3 days to the animals maintained on a aqueous diet. The stomachs were removed after 1, 2, and 3 days of treatment and the ulcerations were classified from 0 to 4. The ulceration index is calculated for each group of animals as the product (average of the classes x the percentage of animals afflicted), while distinguishing acute ulcerations from ulcers which were in the process of healing.

carageenan-induced edema = test: inhibition of carrageenan-induced edema; format: in vivo, male Wistar rat; details: oral
Experimental: The inflammation is produced in the male Wistar rat by injection of 0.1 ml of a 0.5% suspension of carageenan in physiological serum, into the muscular fascia of the metatarsal region of the hind foot of the animal. The test substance is administered orally at the same time as the carageenan or 30 or 60 min before carageenan. The edema is measured by plethysmometry three hours after the adminstration of the carrageenan.

Cc1ccc(C=Nc2ccc3c(c2)OCO3)s1 [Example 2, N-(5-methyl-2-thienylidene)-5-aminobenzodioxole-1,3]
% analgesic activity (phenylbenzoquinone (PBQ); 100 mg/kg): 19% | % analgesic activity (phenylbenzoquinone (PBQ); 200 mg/kg): 49% | % analgesic activity (phenylbenzoquinone (PBQ); 250 mg/kg): 51% | % analgesic activity (phenylbenzoquinone (PBQ); 300 mg/kg): 40% | mortality at 336 h ([1]; 750 mg/kg): 10% | mortality at 336 h ([1]; 1000 mg/kg): 20% | mortality at 336 h ([1]; 1250 mg/kg): 0% | mortality at 336 h ([1]; 1500 mg/kg): 60% | mortality (in words) (Wistar rat): no mortality | Exudate, % activity ([2]; 100 mg/kg administered twice): 31% | Exudate, % animals 30% protected ([2]; 100 mg/kg administered twice): 62% | Exudate, % animals 30% protected ([2]; 150 mg/kg administered twice): 25% and 14% | Weight of dry granuloma, % animals 30% protected ([2]; 150 mg/kg administered twice): 25% and 14% | Weight of wet granuloma, % animals 30% protected ([2]; 150 mg/kg administered twice): 25% and 14% | Exudate, % activity ([2]; 200 mg/kg administered twice): 39% | Exudate, % animals 30% protected ([2]; 200 mg/kg administered twice): 75% | Weight of dry granuloma, % activity ([2]; 200 mg/kg administered twice): 41% and 22% | Weight of dry granuloma, % animals 30% protected ([2]; 200 mg/kg administered twice): 75% and 50% | Weight of wet granuloma, % activity ([2]; 200 mg/kg administered twice): 39% and 24% | Weight of wet granuloma, % animals 30% protected ([2]; 200 mg/kg administered twice): 75% and 50% | Exudate, % activity ([2]; 300 mg/kg administered twice): 18% | Exudate, % animals 30% protected ([2]; 300 mg/kg administered twice): 2% | Weight of dry granuloma, % activity ([2]; 300 mg/kg administered twice): 9% | Weight of dry granuloma, % animals 30% protected ([2]; 300 mg/kg administered twice): 25% | Weight of wet granuloma, % activity ([2]; 300 mg/kg administered twice): 18% | Weight of wet granuloma, % animals 30% protected ([2]; 300 mg/kg administered twice): 25% | ED50 ([2]; Rattus norvegicus, 24 h, dose which protects 50% of the animals to the extent of 30% with respect to wet weight of the granuloma, read-out: AD50 (the source's name)): 175 mg/kg | % inhibitory activity on serotonin edema ([3]; 100 mg/kg): 39% | % inhibitory activity on serotonin edema ([3]; 200 mg/kg): 29% | % inhibitory activity on serotonin edema ([3]; 400 mg/kg): 37% | % inhibition with respect to dry pellets (cotton pellet granulomas; dose 150): 5% | % inhibition with respect to wet pellets (cotton pellet granulomas; dose 150): 12% | % inhibition with respect to dry pellets (cotton pellet granulomas; dose 300): 23% | % inhibition with respect to wet pellets (cotton pellet granulomas; dose 300): 17% | solubility in water (solubility in water): insoluble in water | Ulceration Index, acute (stomachs; Day 1): 6 | Ulceration Index, healing (stomachs; Day 1): 0 | Ulceration Index, acute (stomachs; Day 2): 2 | Ulceration Index, healing (stomachs; Day 2): 6 | Ulceration Index, acute (stomachs; Day 3): 48 | Ulceration Index, healing (stomachs; Day 3): 28 | % inhibiting activity on carrageenan-induced edema (carageenan-induced edema; To - 30, 75 mg/kg): 21% | % inhibiting activity on carrageenan-induced edema (carageenan-induced edema; To - 30, 150 mg/kg): 47% | % inhibiting activity on carrageenan-induced edema (carageenan-induced edema; To - 30, 300 mg/kg): 61% | % inhibiting activity on carrageenan-induced edema (carageenan-induced edema; To - 60, 75 mg/kg): 15% | % inhibiting activity on carrageenan-induced edema (carageenan-induced edema; To - 60, 150 mg/kg): 26% | % inhibiting activity on carrageenan-induced edema (carageenan-induced edema; To - 60, 225 mg/kg): 49% | % inhibiting activity on carrageenan-induced edema (carageenan-induced edema; To - 60, 300 mg/kg): 66% | % inhibiting activity on carrageenan-induced edema (carageenan-induced edema; at To, 100 mg/kg): 30% | % inhibiting activity on carrageenan-induced edema (carageenan-induced edema; at To, 150 mg/kg): 64% | % inhibiting activity on carrageenan-induced edema (carageenan-induced edema; at To, 200 mg/kg): 33% | % inhibiting activity on carrageenan-induced edema (carageenan-induced edema; at To, 300 mg/kg): 59%
